Where a name gives a salt, the structure may show the parent alone.
How the values were obtained:
Assay in all cases: Method 1: intracellular Ca2+ release (FLIPR, Calcium 5) in recombinant CHO-K1 cells
Assay type in all cases: cell-based
[1] = molecular target: T1, human S1PR5 receptor (Homo sapiens, UniProt Q9H228); conditions: agonist potency, determined with method 1 (symbols A-D); read-out: S1P5 EC50 range
T1 construct: host or cells: CHO-K1
Procedure, shortened: (§1)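 Agonist EC50 values come from nonlinear fits of FLIPR Ca2+ fluorescence, normalized to the phospho-fingolimod reference curve. Recombinant CHO-K1 (receptor plus Gq/i5, aequorin) dye-loaded 1 h at 37° C in pH 7.4 Hepes/probenecid/BSA buffer. Antagonist mode: 10 min preincubation before phospho-fingolimod at EC80.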

[2] = molecular target: T2, human S1PR4 receptor (Homo sapiens, UniProt O95977); conditions: (1): determined with method 1; read-out: S1P4 EC50
T2 construct: host or cells: CHO-K1
T2 sequence (O95977 1-384): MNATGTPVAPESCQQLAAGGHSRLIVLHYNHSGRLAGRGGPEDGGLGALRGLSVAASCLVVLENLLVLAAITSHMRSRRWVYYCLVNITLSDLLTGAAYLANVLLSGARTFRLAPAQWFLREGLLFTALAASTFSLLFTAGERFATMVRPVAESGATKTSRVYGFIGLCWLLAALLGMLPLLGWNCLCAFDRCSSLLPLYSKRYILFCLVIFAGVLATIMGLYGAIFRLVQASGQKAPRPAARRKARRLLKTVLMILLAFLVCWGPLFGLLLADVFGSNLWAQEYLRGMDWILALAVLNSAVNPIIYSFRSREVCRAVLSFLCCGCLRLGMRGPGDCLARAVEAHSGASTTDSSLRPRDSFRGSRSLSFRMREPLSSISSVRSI
Procedure, shortened: as §1

[3] = molecular target: T3, human S1PR1 receptor (Homo sapiens, UniProt P21453); conditions: (1): determined with method 1; read-out: S1P1 EC50
T3 construct: host or cells: CHO-K1
T3 sequence (P21453 whole entry): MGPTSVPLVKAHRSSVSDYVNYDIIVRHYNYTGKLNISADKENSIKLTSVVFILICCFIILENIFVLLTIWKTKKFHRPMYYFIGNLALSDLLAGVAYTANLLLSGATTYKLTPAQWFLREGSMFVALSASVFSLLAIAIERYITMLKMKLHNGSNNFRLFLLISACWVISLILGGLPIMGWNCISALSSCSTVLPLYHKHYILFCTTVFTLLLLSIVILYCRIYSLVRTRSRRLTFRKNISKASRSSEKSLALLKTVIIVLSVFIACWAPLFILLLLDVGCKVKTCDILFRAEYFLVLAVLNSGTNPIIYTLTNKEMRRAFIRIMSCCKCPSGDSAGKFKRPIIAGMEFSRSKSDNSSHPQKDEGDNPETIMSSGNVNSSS
Procedure, shortened: as §1

T1 sequence (Q9H228 whole entry): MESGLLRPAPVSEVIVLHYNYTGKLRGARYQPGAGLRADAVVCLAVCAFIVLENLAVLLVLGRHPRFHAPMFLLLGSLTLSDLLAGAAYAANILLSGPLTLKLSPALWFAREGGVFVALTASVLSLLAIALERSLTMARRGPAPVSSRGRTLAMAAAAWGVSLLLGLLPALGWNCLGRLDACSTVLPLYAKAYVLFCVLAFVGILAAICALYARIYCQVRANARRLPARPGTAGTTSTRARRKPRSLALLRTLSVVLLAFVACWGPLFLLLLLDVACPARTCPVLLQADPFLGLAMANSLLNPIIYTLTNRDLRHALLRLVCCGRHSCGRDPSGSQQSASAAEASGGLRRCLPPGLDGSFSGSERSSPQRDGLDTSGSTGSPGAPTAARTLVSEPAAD

Structure (SMILES) | EC50 [1] | EC50 [2] | EC50 [3]
O=C(O)CC1CC(N2CCc3nc(-c4ccc(OCc5cc(Cl)cc(Cl)c5)cc4)ncc3C2)C1 (stereo not drawn) [Compound 5, 2-(3-(2-(4-((3,5-dichlorobenzyl)oxy)phenyl)-7,8-dihydropyrido[4,3-d]pyrimidin-6(5H)-yl)cyclobutyl)acetic acid] | 100 to 1000 nM | > 1000 nM | > 1000 nM
O=C(O)CN1CCc2nc(-c3ccc(OCc4ccccc4)cc3)ncc2C1 [Compound 25, 2-(2-(4-(benzyloxy)phenyl)-7,8-dihydropyrido[4,3-d]pyrimidin-6(5H)-yl)acetic acid] | 100 to 1000 nM | > 1000 nM | > 1000 nM
O=C(O)CN1CCc2nc(Cc3c(F)cccc3F)ncc2C1 [Compound 26, 2-(2-(2,6-difluorobenzyl)-7,8-dihydropyrido[4,3-d]pyrimidin-6(5H)-yl)acetic acid] | 1000 to 10000 nM | > 1000 nM | > 1000 nM
O=C(O)CN1CCc2nc(-c3ccc(OCc4cccc(F)c4)cc3)ncc2C1 [Compound 27, 2-(2-(4-((3-fluorobenzyl)oxy)phenyl)-7,8-dihydropyrido[4,3-d]pyrimidin-6(5H)-yl)acetic acid] | 10 to 100 nM | > 1000 nM | > 1000 nM
O=C(O)CN1CCc2nc(-c3ccc(OCc4cccc(F)c4F)cc3)ncc2C1 [Compound 28, 2-(2-(4-((2,3-difluorobenzyl)oxy)phenyl)-7,8-dihydropyrido[4,3-d]pyrimidin-6(5H)-yl)acetic acid] | 10 to 100 nM | < 1000 nM | > 1000 nM
O=C(O)CN1CCc2nc(-c3ccc(OCc4ccc(Cl)cc4)cc3)ncc2C1 [Compound 29, 2-(2-(4-((4-chlorobenzyl)oxy)phenyl)-7,8-dihydropyrido[4,3-d]pyrimidin-6(5H)-yl)acetic acid] | 100 to 1000 nM | > 1000 nM | > 1000 nM
O=C(O)CN1CCc2nc(-c3ccc(OCc4cc(F)cc(F)c4)cc3)ncc2C1 [Compound 31, 2-(2-(4-((3,5-difluorobenzyl)oxy)phenyl)-7,8-dihydropyrido[4,3-d]pyrimidin-6(5H)-yl)acetic acid] | 100 to 1000 nM | > 1000 nM | > 1000 nM
CCc1cccc(Cl)c1COc1nc2c(cc1F)CN(C1CC(C(=O)O)C1)CC2 (stereo not drawn) [Compound 183, 3-(2-((2-chloro-6-ethylbenzyl)oxy)-3-fluoro-7,8-dihydro-1,6-naphthyridin-6(5H)-yl)cyclobutanecarboxylic acid] | 100 to 1000 nM | > 1000 nM | > 1000 nM
O=C(O)C1CC(N2CCc3nc(C#Cc4ccccc4)c(F)cc3C2)C1 (stereo not drawn) [Compound 184, 3-(3-fluoro-2-(phenylethynyl)-7,8-dihydro-1,6-naphthyridin-6(5H)-yl)cyclobutanecarboxylic acid] | 1000 to 10000 nM | > 1000 nM | > 1000 nM
O=C(O)C1CC(N2CCc3nc(-c4cccc(OCc5ccccc5)c4)cnc3C2)C1 (stereo not drawn) [Compound 208, 3-(2-(3-(benzyloxy)phenyl)-7,8-dihydropyrido[3,4-b]pyrazin-6(5H)-yl)cyclobutanecarboxylic acid] | 1000 to 10000 nM | > 1000 nM | > 1000 nM
CC(CC(=O)O)CN1CCc2nc(-c3ccc(OCc4cccc(Cl)c4)cc3)cnc2C1 (stereo not drawn) [Compound 209, 4-(2-(4-((3-chlorobenzyl)oxy)phenyl)-7,8-dihydropyrido[3,4-b]pyrazin-6(5H)-yl)-3-methylbutanoic acid] | < 10 nM | > 1000 nM | > 1000 nM
CC(C)(CC(=O)O)CN1CCc2nc(-c3ccc(OCc4cccc(Cl)c4)cc3)cnc2C1 [Compound 211, 4-(2-(4-((3-chlorobenzyl)oxy)phenyl)-7,8-dihydropyrido[3,4-b]pyrazin-6(5H)-yl)-3,3-dimethylbutanoic acid] | 1000 to 10000 nM | > 1000 nM | > 1000 nM
CC(C)(CC(=O)O)CN1CCc2nc(-c3ccc(OCc4cccc(Cl)c4)cc3)ncc2C1 [Compound 216, 4-(2-(4-((3-chlorobenzyl)oxy)phenyl)-7,8-dihydropyrido[4,3-d]pyrimidin-6(5H)-yl)-3,3-dimethylbutanoic acid] | 1000 to 10000 nM | > 1000 nM | > 1000 nM
CC(C)(CC(=O)O)CN1CCc2nc(-c3ccc(OCc4ccc(Cl)c(Cl)c4)cc3)ncc2C1 [Compound 217, 4-(2-(4-((3,4-dichlorobenzyl)oxy)phenyl)-7,8-dihydropyrido[4,3-d]pyrimidin-6(5H)-yl)-3,3-dimethylbutanoic acid] | 100 to 1000 nM | > 1000 nM | > 1000 nM
CC(CC(=O)O)CN1CCc2nc(-c3ccc(CCc4ccc(Cl)cc4)cc3F)ncc2C1 (stereo not drawn) [Compound 255, 4-(2-(4-(4-chlorophenethyl)-2-fluorophenyl)-7,8-dihydropyrido[4,3-d]pyrimidin-6(5H)-yl)-3-methylbutanoic acid] | < 10 nM | > 1000 nM | > 1000 nM
Cc1cc(-c2ncc3c(n2)CCN(CC(C)CC(=O)O)C3)ccc1OCc1cccc(F)c1F (stereo not drawn) [Compound 256, 4-(2-(4-((2,3-difluorobenzyl)oxy)-3-methylphenyl)-7,8-dihydropyrido[4,3-d]pyrimidin-6(5H)-yl)-3-methylbutanoic acid] | < 10 nM | > 1000 nM | > 1000 nM
Cc1cc(-c2ncc3c(n2)CCN(C[C@@H](C)CC(=O)O)C3)ccc1OCc1ccccc1 [Compound 261, (S)-4-(2-(4-(benzyloxy)-3-methylphenyl)-7,8-dihydropyrido[4,3-d]pyrimidin-6(5H)-yl)-3-methylbutanoic acid] | 10 to 100 nM | > 1000 nM | > 1000 nM
Cc1cc(-c2ncc3c(n2)CCN(CC(C)CC(=O)O)C3)ccc1OCc1ccccc1Cl (stereo not drawn) [Compound 262, 4-(2-(4-((2-chlorobenzyl)oxy)-3-methylphenyl)-7,8-dihydropyrido[4,3-d]pyrimidin-6(5H)-yl)-3-methylbutanoic acid] | 10 to 100 nM | > 1000 nM | > 1000 nM
Cc1cccc(COc2ccc(-c3ncc4c(n3)CCN(CC(C)CC(=O)O)C4)c(F)c2)c1 (stereo not drawn) [Compound 264, 4-[2-[2-fluoro-4-(m-tolylmethoxy)phenyl]-7,8-dihydro-5H-pyrido[4,3-d]pyrimidin-6-yl]-3-methyl-butanoic acid 2,2,2-trifluoroacetic acid salt] | 10 to 100 nM | > 1000 nM | > 1000 nM
Cc1cc(-c2ncc3c(n2)CCN(CC(C)CC(=O)O)C3)ccc1OCc1ccc(F)cc1 (stereo not drawn) [Compound 269, 4-[2-[4-[(4-fluorophenyl)methoxy]-3-methyl-phenyl]-7,8-dihydro-5H-pyrido[4,3-d]pyrimidin-6-yl]-3-methyl-butanoic acid 2,2,2-trifluoroacetic acid salt] | 10 to 100 nM | > 1000 nM | > 1000 nM
Cc1cc(-c2ncc3c(n2)CCN(C[C@@H](C)CC(=O)O)C3)ccc1OCc1ccc(Cl)cc1 [Compound 270, (S)-4-(2-(4-((4-chlorobenzyl)oxy)-3-methylphenyl)-7,8-dihydropyrido[4,3-d]pyrimidin-6(5H)-yl)-3-methylbutanoic acid] | 10 to 100 nM | > 1000 nM | > 1000 nM
Cc1ccc(C(F)(F)F)cc1COc1ccc(-c2ncc3c(n2)CCN(CC(C)CC(=O)O)C3)c(F)c1 (stereo not drawn) [Compound 272, 4-[2-[2-fluoro-4-[[2-methyl-5-(trifluoromethyl)phenyl]methoxy]phenyl]-7,8-dihydro-5H-pyrido[4,3-d]pyrimidin-6-yl]-3-methyl-butanoic acid 2,2,2-trifluoroacetic acid salt] | 10 to 100 nM | > 1000 nM | > 1000 nM
Cc1cc(-c2ncc3c(n2)CCN(CC(C)CC(=O)O)C3)ccc1OCc1cccc(C(F)(F)F)c1C (stereo not drawn) [Compound 273, 3-methyl-4-(2-(3-methyl-4-((2-methyl-3-(trifluoromethyl)benzyl)oxy)phenyl)-7,8-dihydropyrido[4,3-d]pyrimidin-6(5H)-yl)butanoic acid] | 10 to 100 nM | > 1000 nM | > 1000 nM
Cc1cc(-c2ncc3c(n2)CCN(CC(C)CC(=O)O)C3)ccc1OCc1c(C)cccc1C (stereo not drawn) [Compound 274, 4-[2-[4-[(2,6-dimethylphenyl)methoxy]-3-methyl-phenyl]-7,8-dihydro-5H-pyrido[4,3-d]pyrimidin-6-yl]-3-methyl-butanoic acid 2,2,2-trifluoroacetic acid salt] | 10 to 100 nM | > 1000 nM | > 1000 nM
Cc1cccc(C)c1COc1ccc(-c2ncc3c(n2)CCN(CC(C)CC(=O)O)C3)c(F)c1 (stereo not drawn) [Compound 276, 4-[2-[4-[(2,6-dimethylphenyl)methoxy]-2-fluoro-phenyl]-7,8-dihydro-5H-pyrido[4,3-d]pyrimidin-6-yl]-3-methyl-butanoic acid 2,2,2-trifluoroacetic acid salt] | 10 to 100 nM | > 1000 nM | > 1000 nM
C[C@@H](CC(=O)O)CN1CCc2nc(-c3ccc(CCc4ccc(Cl)cc4)cc3)ncc2C1 [Compound 278, (S)-4-(2-(4-(4-chlorophenethyl)phenyl)-7,8-dihydropyrido[4,3-d]pyrimidin-6(5H)-yl)-3-methylbutanoic acid] | 10 to 100 nM | > 1000 nM | > 1000 nM

Reference: patent US10556907B2 (AbbVie Inc., priority 2015, dated 2020)
